We go through eight molecules from patent US5594019A, “6-heterocyclic-4-amino-1,3,4,5-tetrahydrobenz[CD]indoles” (Eli Lilly and Company, priority 1994, dated 1997).

In one test the target is T1, 5-HT1A receptor (Rattus norvegicus, UniProt P19327).
T1 construct: the brains were rapidly chilled and dissected to obtain the hippocampi; from tissue; host or cells: hippocampus of male Sprague-Dawley rats (membranes)
T1 sequence (P19327 1-422): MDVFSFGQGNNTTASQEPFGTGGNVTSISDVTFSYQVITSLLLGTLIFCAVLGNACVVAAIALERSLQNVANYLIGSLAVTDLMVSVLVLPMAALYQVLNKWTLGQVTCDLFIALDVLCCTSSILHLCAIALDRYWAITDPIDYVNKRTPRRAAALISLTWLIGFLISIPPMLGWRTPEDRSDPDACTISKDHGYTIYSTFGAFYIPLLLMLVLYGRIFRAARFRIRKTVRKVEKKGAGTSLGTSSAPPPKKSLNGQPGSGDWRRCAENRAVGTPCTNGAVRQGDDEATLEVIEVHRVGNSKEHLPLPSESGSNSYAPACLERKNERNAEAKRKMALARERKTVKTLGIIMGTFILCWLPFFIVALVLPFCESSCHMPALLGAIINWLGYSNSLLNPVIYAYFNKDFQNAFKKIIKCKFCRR
Kind of test: In vitro binding at the 5-HT1A receptor, inhibition of [3H]8-OH-DPAT binding to hippocampal membranes. More on the design: species or system male Sprague-Dawley rats. The conditions noted are these: [3H]8-OH-DPAT (1.0 nM), 10 minutes at 37° C., pH 7.4. Here is the method:
The affinities of certain of the compounds of Formula 1 at the central 5-HT1A receptors were determined using a modification of the binding assay described by Taylor, et al., J. Pharmacol. Exp. Ther., 236, 118-125 (1986). Membranes for the binding assay were prepared from male Sprague-Dawley rats (150-250 g). The animals were killed by decapitation, and the brains were rapidly chilled and dissected to obtain the hippocampi. Membranes from the hippocampi were either prepared that day, or the hippocampi were stored frozen (-70° C.) until the day of preparation. The membranes were prepared by homogenizing the tissue in 40 volumes of ice-cold Tris-HCl buffer (50 mM, pH 7.4 at 22° C.) using a Techmar Tissumizer (setting 65 for 15 seconds), and the homogenate was centrifuged at 39800xg for 10 minutes. The resulting pellet was then resuspended in the same buffer, and the centrifugation and resuspension process was repeated three additional times to wash the membranes. Between the second and third washes the resuspended membranes were incubated for 10 minutes at 37° C. to facilitate the removal of endogenous ligands. The final pellet was resuspended in 67 mM Tris-HCl, pH 7.4, to a concentration of 2 mg of tissue original wet weight/200 μl. This homogenate was stored frozen (-70° C.) until the day of the binding assay. […] The assay tubes were incubated for 10 minutes at 37° C., and the contents were then rapidly filtered through GF/B filters (pretreated with 0.5% polyethylenimine), tollowed by four 1 ml washes with ice-cold buffer. The radioactivity trapped by the filters was quantitated by liquid scintillation spectometry, and specific [^3 H]8-OH-DPAT binding to the 5-HT1A sites was defined as the difference between [^3 H]8-OH-DPAT bound in the presence and absence of 10 μM 5-HT.
In Table 1, the first column provides the example number of the compound evaluated while the second column provides the amount of test compound (expressed in nanomolar concentration) required to inhibit the binding of [^3 H]8-OH-DPAT by 50% (indicated as IC50).

The target of the next test is T2, 5-HT1D receptor (Bos taurus, UniProt F1MGM3).
T2 construct: Bovine brains were obtained and the caudate nuclei were dissected out; from tissue; host or cells: bovine caudate nuclei (membranes)
The test can be described thus: In vitro binding activity at the 5-HT1D receptor, inhibition of [3H]5-HT binding to caudate nuclei membranes. The conditions noted are these: [3H]5-HT (1.7-1.9 nM), bovine caudate membranes, 8-OH-DPAT and mesulergine 100 nM masking, 10 minutes at 37° C., pH 7.4. Here is the method:
The affinities of certin of the compounds of Formula 1 at the central 5-HT1D binding sites were determined using a modification of the binding assay described by Heuring and Peroutka, J. Neurosci., 7, 894 (1987). Bovine brains were obtained and the caudate nuclei were dissected out and frozen at -70° C. until the time that the membranes were prepared for the binding assays. At that time the tissues were homogenized in 40 volumes of ice-cold Tris-HCl buffer (50 mM, pH 7.4 at 22° C.) with a Techmar Tissumizer (setting 65 for 15 seconds), and the homogenate was centrifuged at 39,800xg for 10 minutes. The resulting pellet was then resuspended in the same buffer, and the centrifugation and resuspension process was repeated three additional times to wash the membranes. Between the second and third washes the resuspended membranes were incubated for 10 minutes at 37° C. to facilitate the removal of endogenous 5-HT. The final pellet was resuspended in Tris buffer to a concentration of 25 mg of original tissue wet weight/ml for use in the binding assay. […] The assay tubes were incubated for 10 minutes at 37° C., and the contents were then rapidly filtered through GF/B filters (pretreated with 0.5% polyethylenimine), followed by four 1 ml washes with ice-cold buffer. The radioactivity trapped by the filters was quantitated by liquid scintillation spectrometry, and specific [^3 H]5-HT binding to the 5-HT1D sites was defined as the difference between [^3 H]5-HT bound in the presence and absence of […] 5-HT.
In Table 2, the first column provides the example number of the compound evaluated while the second column provides the amount of test compound (expressed in nanomolar concentration) required to inhibit the binding of [^3 H]5-HT by 50% (indicated as IC50).

Test [1] has as its system serotonin metabolite 5-hydroxyindole acetic acid (5HIAA). Kind of test: Effect on serotonin turnover in vivo, decrease of 5HIAA concentration in whole brain. The conditions noted are these: Rattus norvegicus, 1 h, rats, whole brain 5HIAA, one hour after dosing (generally a 15-20% decrease). More on the design: species or system Male albino rats. Here is the method:
In another experiment certain compounds of Formula 1 were evaluated to determine ability to affect serotonin turnover in vivo. As a measure of such affect on serotonin turnover, the decrease of the serotonin metabolite 5-hydroxyindole acetic acid (5HIAA) was measured. The following protocol was employed.
Male albino rats were injected either subcutaneously or orally with an aqueous solution of the compound tested. The pH of the solution was adjusted as necessary to solubilize the compound. A control of the solution without the test compound was similarly administered to a control animal. The rats were decapitated one hour later. The whole brain was then removed and frozen on dry ice for storage prior to analysis. 5-Hydroxyindole acetic acid (5HIAA) concentration in whole brain was measured by liquid chromatography with electrochemical detection as reported by Fuller and Perry, "Effects of Buspirone and its Metabolite, 1-(2-pyrimidinyi)piperazine, on Brain Monoamines and Their Metabolites in Rats", J. Pharmacol. Ext. Ther., 248, p. 50-56 (1989), incorporated herein by reference.
In Table III, Column 1 provides the Example No. of the compound tested while Column 2 provides the minimum effective dose (in mg/kg) required to produce a statistically significant decrease in 5HIAA concentration relative to control (generally a 15-20% decrease) for both oral and subcutaneous methods of administration.

Where [2] appears, read: sc, s.c., read-out: Minimum Effective Dose (mg/kg) s.c., for a statistically significant decrease in 5HIAA concentration relative to control.
The mark [3] stands for this setting: po, p.o., read-out: Minimum Effective Dose (mg/kg) p.o., for a statistically significant decrease in 5HIAA concentration relative to control.

Like-named read-outs stand apart in the source and are kept apart here.

T2 sequence (F1MGM3 1-403): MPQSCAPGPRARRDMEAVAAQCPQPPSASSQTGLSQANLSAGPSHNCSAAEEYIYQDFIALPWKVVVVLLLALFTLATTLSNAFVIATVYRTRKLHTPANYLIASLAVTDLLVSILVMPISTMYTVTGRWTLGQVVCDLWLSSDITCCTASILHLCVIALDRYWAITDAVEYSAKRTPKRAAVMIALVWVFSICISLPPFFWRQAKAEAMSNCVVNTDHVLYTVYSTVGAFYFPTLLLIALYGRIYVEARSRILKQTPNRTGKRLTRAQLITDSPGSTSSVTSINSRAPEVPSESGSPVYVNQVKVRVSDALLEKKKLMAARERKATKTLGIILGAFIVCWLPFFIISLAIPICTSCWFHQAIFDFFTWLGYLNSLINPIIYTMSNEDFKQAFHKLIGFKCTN

Consider `CCCN(CCC)[C@H]1Cc2c[nH]c3ccc(-c4ccno4)c(c23)C1` [Example 26, (-)(4R)-6-(5-isoxazolyl)-4-(di-n-propylamino)-1,3,4,5-tetrahydrobenz[cd]indole], for which the IC50 – broadly, the concentration needed to halve the response being measured – at 5-HT1A receptor turned out to be 0.1 nM; on 5-HT1D receptor, 46.4 nM.
Consider `CCCN(CCC)[C@H]1Cc2c[nH]c3ccc(-c4nc(-c5ccccc5)no4)c(c23)C1` [Example 30, (-)(4R)-6-(3-phenyl-1,2,4-oxadiazol-5-yl)-4-(di-n-propylamino)-1,3,4,5-tetrahydrobenz-[cd]indole], for which the IC50 on 5-HT1A receptor turned out to be 7.1 nM.
`CCCN(CCC)[C@H]1Cc2c[nH]c3ccc(-c4cnco4)c(c23)C1` [Example 32, (-)(4R)-6-(5-oxazolyl)-4-(di-n-propylamino)-1,3,4,5-tetrahydrobenz[cd]indole]: the IC50 was 0.53 nM at 5-HT1A receptor and 74.4 nM on 5-HT1D receptor.
As to `CCCN(CCC)[C@@H]1Cc2c[nH]c3ccc(-c4ccon4)c(c23)C1` [Example 24, (+)(4S)-6-(3-isoxazoly)-4-(di-n-propylamino)-1,3,4,5-tetrahydrobenz[cd]indole], the IC50 at 5-HT1A receptor was 0.61 nM; on 5-HT1D receptor, 18.6 nM.
`CCCN(CCC)[C@H]1Cc2c[nH]c3ccc(-c4nnc(-c5ccccc5)o4)c(c23)C1` [Example 35, (-)(4R)-6-(5-phenyl-1,3,4-oxadiazol-2-yl)-4-(di-n-propylamino)-1,3,4,5-tetrahydrobenz[cd]indole]: the minimal effective dose in test [1] (setting [2]) is greater than 1 mg/kg. On 5-HT1A receptor, this molecule registered an IC50 of 19 nM.
For the molecule `CCCN(CCC)[C@H]1Cc2c[nH]c3ccc(-c4cccnc4)c(c23)C1` [Example 33, (-)(4R)-6-(3-pyridyl)-4-(di-n-propylamino)-1,3,4,5-tetrahydrobenz[cd]indol], the values for the minimal effective dose in test [1] (setting [3]) and in test [1] (setting [2]) were greater than 10 mg/kg and 0.3 mg/kg, respectively. Besides, the IC50 is 0.87 nM at 5-HT1A receptor and 29.4 nM on 5-HT1D receptor.
With `CCCN(CCC)[C@H]1Cc2c[nH]c3ccc(-c4ncco4)c(c23)C1` [Example 31, (-)(4R)-6-(2-oxazolyl)-4-(di-n-propylamino)-1,3,4,5-tetrahydrobenz[cd]indole], the minimal effective dose in test [1] (setting [3]) and in test [1] (setting [2]) was 1 mg/kg each time. Further, the IC50 was determined as 2.77 nM on 5-HT1A receptor and 280 nM on 5-HT1D receptor.
As for `CCCN(CCC)[C@H]1Cc2c[nH]c3ccc(-c4nnco4)c(c23)C1` [Example 34, (4R)-6-[2-(1,3,4-oxadiazolyl)]-4-(di-n-propylamino)-1,3,4,5-tetrahydrobenz[cd]indole], the results for the minimal effective dose in test [1] (setting [3]) and in test [1] (setting [2]) were 10 mg/kg and 0.1 mg/kg, respectively. In addition, the IC50 turned out to be 0.75 nM at 5-HT1A receptor and 577 nM at 5-HT1D receptor.
